Laboratory results: US11767320B2, “Bicyclic dione compounds as inhibitors of KRAS” (INCYTE CORPORATION, priority 2020, dated 2023)

Key:
KRAS G12C = KRAS G12C (Homo sapiens, UniProt P01116, G12C); experiment: GDP-GTP exchange assay (fluorescence based guanine nucleotide exchange, bodipy-GDP for GppNHp, SOS1); type: biochemical; details: bodipy-loaded KRAS G12C, 2 hours pre-incubation with inhibitor, read-out: G12C_exchange (KRAS_G12C exchange assay IC50)
Description: The inhibitor potency of the exemplified compounds was determined in a fluorescence based guanine nucleotide exchange assay, which measures the exchange of bodipy-GDP (fluorescently labeled GDP) for GppNHp (Non-hydrolyzable GTP analog) to generate the active state of KRAS in the presence of SOS1 (guanine nucleotide exchange factor). Inhibitors were serially diluted in DMSO and a volume of 0.1 μL was transferred to the wells of a black low volume 384-well plate. 5 μL/well volume of bodipy-loaded KRAS G12C diluted to 5 nM in assay buffer (25 mM Hepes pH 7.5, 50 mM NaCl, 10 mM MgCl2 and 0.01% Brij-35) was added to the plate and pre-incubated with inhibitor for 2 hours at ambient temperature. Appropriate controls (enzyme with no inhibitor or with a G12C inhibitor (AMG-510)) were included on the plate. The exchange was initiated by the addition of a 5 μL/well volume containing 1 mM GppNHp and 300 nM SOS1 in assay buffer. The 10 μL/well reaction concentration of the bodipy-loaded KRAS G12C, GppNHp, and SOS1 were 5-25 nM, 500 uM, and 150 nM, respectively. The reaction plates were incubated at ambient temperature for 2 hours, a time estimated for complete GDP-GTP exchange in the absence of inhibitor. For the KRAS G12D and G12V mutants, similar guanine nucleotide exchange assays were used with 2.5 nM as final concentration for the bodipy loaded KRAS proteins and with 4 hours and 3 hours incubation after adding GppNHp-SOS1 mixture for G12D and G12V, respectively. A cyclic peptide described to selectively bind G12D mutant (Sakamoto et al., BBRC 484.3 (2017), 605-611) or internal compounds with confirmed binding were used as positive controls in the assay plates. Fluorescence intensities were measured on a PheraStar plate reader instrument (BMG Labtech) with excitation at 485 nm and emission at 520 nm.
Either GraphPad prism or XLfit was used to analyze the data. The IC50 values were derived by fitting the data to a four parameter logistic equation producing a sigmoidal dose-response curve with a variable Hill coefficient. Prism equation: Y=Bottom+(Top−Bottom)/(1+10^((Log IC50−X)*Hill slope)); XLfit equation: Y=(A+((B−A)/(1+((X/C)^D)))) where X is the logarithm of inhibitor concentration and Y is the response.

[1] = system: MIA PaCa-2 (KRAS G12C) cells; experiment: Cellular pERK HTRF assay; type: cell-based; details: Homo sapiens; MIA PaCa-2 cells, 4 hours, phospho-ERK 1/2 HTRF; read-out: G12C_pERK (KRAS_G12C pERK assay IC50)
Description: MIA PaCa-2 (KRAS G12C; ATCC® CRL-1420), A427 (KRAS G12D; ATCC® HTB53), HPAF-II (KRAS G12D; ATCC® CRL-1997) and NCI-H838 (KRAS WT; ATCC® CRL-5844) cells are purchased from ATCC and maintained in RPMI 1640 media supplemented with 10% FBS (Gibco/Life Technologies). The cells are plated at 5000 cells per well (8 uL) into Greiner 384-well low volume, flat-bottom, tissue culture treated white plates and incubated overnight at 37° C. 5% CO2. The next morning, test compound stock solutions are diluted in media at 3× the final concentration, and 4 uL are added to the cells. The plate is mixed by gentle rotation for 30 seconds (250 rpm) at room temperature. The cells are incubated with the KRAS G12C and G12D compounds for 4 hours or 2 hours respectively at 37° C., 5% CO2.
4 uL of 4× lysis buffer with blocking reagent (1:25) (Cisbio) are added to each well and plates are rotated gently (300 rpm) for 30 minutes at room temperature. 4 uL per well of Cisbio anti Phospho-ERK 1/2 d2 is mixed with anti Phospho-ERK 1/2 Cryptate (1:1) are added to each well, mixed by rotation and incubated overnight in the dark at room temperature. Plates are read on the Pherastar plate reader at 665 nm and 620 nm wavelengths. IC50 determination is performed by fitting the curve of inhibitor percent inhibition versus the log of the inhibitor concentration using the GraphPad Prism 7 software.

KRAS G12C, sequence (P01116 1-188 isoform P01116-2 G12C): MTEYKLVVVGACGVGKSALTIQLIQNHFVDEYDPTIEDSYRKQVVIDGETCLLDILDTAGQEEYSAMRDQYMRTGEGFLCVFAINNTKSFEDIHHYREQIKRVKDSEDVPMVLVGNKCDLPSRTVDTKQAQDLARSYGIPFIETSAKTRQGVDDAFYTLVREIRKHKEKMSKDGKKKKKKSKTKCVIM

SMILES: C=CC(=O)N1CC(Cn2c(=O)c(=O)n(-c3c(C(C)C)cccc3C(C)C)c3nc(-c4cccc(F)c4F)c(Cl)cc32)C1 [Example 5, 1-((1-acryloylazetidin-3-yl)methyl)-7-chloro-4-(2,6-diisopropylphenyl)-6-(2,3-difluorophenyl)-1,4-dihydropyrido[2,3-b]pyrazine-2,3-dione]
- IC50 (KRAS G12C): ≤ 100 nM
- IC50 [1]: 100 to 1000 nM

SMILES: C=CC(=O)N1CC(O)(Cn2c(=O)c(=O)n(-c3c(C(C)C)cccc3C(C)C)c3nc(-c4ccccc4F)c(Cl)cc32)C1 [Example 7, 1-((1-acryloyl-3-hydroxy-azetidin-3-yl)methyl)-7-chloro-4-(2,6-diisopropylphenyl)-6-(2-fluorophenyl)-1,4-dihydropyrido[2,3-b]pyrazine-2,3-dione]
- IC50 (KRAS G12C): ≤ 100 nM
- IC50 [1]: 100 to 1000 nM

SMILES: C=CC(=O)N1CC(Cn2c(=O)c(=O)n(-c3c(C(C)C)cccc3C(C)C)c3nc(-c4ccccc4F)c(Cl)cc32)(OC)C1 [Example 8, 1-((1-acryloyl-3-methoxy-azetidin-3-yl)methyl)-7-chloro-4-(2,6-diisopropylphenyl)-6-(2-fluorophenyl)-1,4-dihydropyrido[2,3-b]pyrazine-2,3-dione]
- IC50 (KRAS G12C): 100 to 1000 nM
- IC50 [1]: 100 to 1000 nM

SMILES: C=CC(=O)N1CC(Cn2c(=O)c(=O)n(-c3c(C(C)C)cccc3C(C)C)c3nc(-c4cccc(F)c4F)c(Cl)cc32)(OC)C1 [Example 9, 1-((1-acryloyl-3-methoxy-azetidin-3-yl)methyl)-7-chloro-4-(2,6-diisopropylphenyl)-6-(2,3-difluorophenyl)-1,4-dihydropyrido[2,3-b]pyrazine-2,3-dione]
- IC50 (KRAS G12C): 100 to 1000 nM
- IC50 [1]: 100 to 1000 nM

SMILES: C=CC(=O)N1CC(F)(Cn2c(=O)c(=O)n(-c3c(C(C)C)cccc3C(C)C)c3nc(-c4ccccc4F)c(Cl)cc32)C1 [Example 10, 1-((1-acryloyl-3-fluoro-azetidin-3-yl)methyl)-7-chloro-4-(2,6-diisopropylphenyl)-6-(2-fluorophenyl)-1,4-dihydropyrido[2,3-b]pyrazine-2,3-dione]
- IC50 (KRAS G12C): ≤ 100 nM
- IC50 [1]: 100 to 1000 nM

SMILES: C=CC(=O)N1CC(F)(Cn2c(=O)c(=O)n(-c3c(C(C)C)cccc3C(C)C)c3nc(-c4cccc5ccccc45)c(Cl)cc32)C1 [Example 11, 1-((1-acryloyl-3-fluoroazetidin-3-yl)methyl)-7-chloro-6-(1-naphthyl)-4-(2,6-diisopropylphenyl)-1,4-dihydropyrido[2,3-b]pyrazine-2,3-dione]
- IC50 (KRAS G12C): ≤ 100 nM
- IC50 [1]: 100 to 1000 nM

SMILES: C=CC(=O)N1CC(F)(Cn2c(=O)c(=O)n(-c3c(C(C)C)cccc3C(C)C)c3nc(-c4c(O)cccc4F)c(Cl)cc32)C1 [Example 12, 1-((1-acryloyl-3-fluoroazetidin-3-yl)methyl)-7-chloro-4-(2,6-diisopropylphenyl)-6-(2-fluoro-6-hydroxyphenyl)-1,4-dihydropyrido[2,3-b]pyrazine-2,3-dione]
- IC50 (KRAS G12C): ≤ 100 nM
- IC50 [1]: ≤ 100 nM

SMILES: C=C(F)C(=O)N1CC(F)(Cn2c(=O)c(=O)n(-c3c(C(C)C)cccc3C(C)C)c3nc(-c4c(O)cccc4F)c(Cl)cc32)C1 [Example 13, 7-chloro-4-(2,6-diisopropylphenyl)-1-((3-fluoro-1-(2-fluoroacryloyl)azetidin-3-yl)methyl)-6-(2-fluoro-6-hydroxyphenyl)-1,4-dihydropyrido[2,3-b]pyrazine-2,3-dione]
- IC50 (KRAS G12C): ≤ 100 nM
- IC50 [1]: ≤ 100 nM

SMILES: C=CC(=O)N1CC(F)(Cn2c(=O)c(=O)n(-c3c(C(C)C)cccc3C(C)C)c3nc(-c4cc(O)cc5ccccc45)c(Cl)cc32)C1 [Example 14, 1-((1-acryloyl-3-fluoroazetidin-3-yl)methyl)-7-chloro-4-(2,6-diisopropylphenyl)-6-(3-hydroxynaphthalen-1-yl)-1,4-dihydropyrido[2,3-b]pyrazine-2,3-dione]
- IC50 (KRAS G12C): ≤ 100 nM
- IC50 [1]: ≤ 100 nM

SMILES: C=CC(=O)N1CC(F)(Cn2c(=O)c(=O)n(-c3c(C(C)C)cccc3C(C)C)c3nc(-c4c(N)cccc4F)c(Cl)cc32)C1 [Example 15, 1-((1-acryloyl-3-fluoroazetidin-3-yl)methyl)-6-(2-amino-6-fluorophenyl)-7-chloro-4-(2,6-diisopropylphenyl)-1,4-dihydropyrido[2,3-b]pyrazine-2,3-dione]
- IC50 (KRAS G12C): ≤ 100 nM
- IC50 [1]: ≤ 100 nM

SMILES: C=CC(=O)N1CC(F)(Cn2c(=O)c(=O)n(-c3c(C(C)C)cccc3C(C)C)c3nc(-c4c(O)ccc(F)c4F)c(Cl)cc32)C1 [Example 16, 1-((1-acryloyl-3-fluoroazetidin-3-yl)methyl)-7-chloro-6-(2,3-difluoro-6-hydroxyphenyl)-4-(2,6-diisopropylphenyl)-1,4-dihydropyrido[2,3-b]pyrazine-2,3-dione]
- IC50 (KRAS G12C): ≤ 100 nM
- IC50 [1]: ≤ 100 nM

SMILES: C=CC(=O)N1CC(F)(Cn2c(=O)c(=O)n(-c3c(C)ccnc3C(C)C)c3nc(-c4c(O)cccc4F)c(Cl)cc32)C1 [Example 17, 1-((1-acryloyl-3-fluoroazetidin-3-yl)methyl)-7-chloro-6-(2-fluoro-6-hydroxyphenyl)-4-(2-isopropyl-4-methylpyridin-3-yl)-1,4-dihydropyrido[2,3-b]pyrazine-2,3-dione]
- IC50 (KRAS G12C): ≤ 100 nM
- IC50 [1]: ≤ 100 nM

SMILES: C=CC(=O)N1CC(F)(Cn2c(=O)c(=O)n(-c3c(C)ccnc3C(C)C)c3nc(-c4ccccc4F)c(Cl)cc32)C1 [Example 18, 1-((1-acryloyl-3-fluoroazetidin-3-yl)methyl)-7-chloro-6-(2-fluorophenyl)-4-(2-isopropyl-4-methylpyridin-3-yl)-1,4-dihydropyrido[2,3-b]pyrazine-2,3-dione]
- IC50 (KRAS G12C): ≤ 100 nM
- IC50 [1]: ≤ 100 nM

SMILES: C=CC(=O)N1CC(F)(Cn2c(=O)c(=O)n(-c3c(C)ccnc3C(C)C)c3nc(-c4c(N)cccc4F)c(Cl)cc32)C1 [Example 19, 1-((1-acryloyl-3-fluoroazetidin-3-yl)methyl)-6-(2-amino-6-fluorophenyl)-7-chloro-4-(2-isopropyl-4-methylpyridin-3-yl)-1,4-dihydropyrido[2,3-b]pyrazine-2,3-dione]
- IC50 (KRAS G12C): ≤ 100 nM
- IC50 [1]: ≤ 100 nM

SMILES: C=CC(=O)N1CC(F)(Cn2c(=O)c(=O)n(-c3c(C)ccnc3C(C)C)c3nc(-c4c(O)cc(C)cc4F)c(Cl)cc32)C1 [Example 20, 1-((1-acryloyl-3-fluoroazetidin-3-yl)methyl)-7-chloro-6-(2-fluoro-6-hydroxy-4-methylphenyl)-4-(2-isopropyl-4-methylpyridin-3-yl)-1,4-dihydropyrido[2,3-b]pyrazine-2,3-dione]
- IC50 (KRAS G12C): ≤ 100 nM
- IC50 [1]: ≤ 100 nM

SMILES: C=CC(=O)N1CC(F)(Cn2c(=O)c(=O)n(-c3c(C)ccnc3C(C)C)c3nc(-c4c(F)ccc(C)c4O)c(Cl)cc32)C1 [Example 21, 1-((1-acryloyl-3-fluoroazetidin-3-yl)methyl)-7-chloro-6-(6-fluoro-2-hydroxy-3-methylphenyl)-4-(2-isopropyl-4-methylpyridin-3-yl)-1,4-dihydropyrido[2,3-b]pyrazine-2,3-dione]
- IC50 (KRAS G12C): ≤ 100 nM
- IC50 [1]: ≤ 100 nM

SMILES: C=CC(=O)N1CC(F)(Cn2c(=O)c(=O)n(-c3c(C)ccnc3C(C)C)c3nc(-c4c(F)ccc(F)c4O)c(Cl)cc32)C1 [Example 22, 1-((1-acryloyl-3-fluoroazetidin-3-yl)methyl)-7-chloro-6-(3,6-difluoro-2-hydroxyphenyl)-4-(2-isopropyl-4-methylpyridin-3-yl)-1,4-dihydropyrido[2,3-b]pyrazine-2,3-dione]
- IC50 (KRAS G12C): ≤ 100 nM
- IC50 [1]: ≤ 100 nM
